From patent US10722518B2, “Oxazine derivative for use in the treatment or prevention of cerebral amyloid angiopathy” (Novartis AG, priority 2016, dated 2020)

Tests used:
[1] = system: Aβ40 levels in APOE4-TR mouse brain; test: Acute PK/PD dose-response study in APOE4-TR mice: Aβ40 in forebrain (MSD assay); assay type: in vivo; details: for Mini AUEC (brain Aβ40): 4 h and 24 h; for Aβ40 reduction, range over doses: 3, 10 and 30 μmol/kg
Protocol: Male and female transgenic homozygous APOE4-TR (B6. 129P2-Apoe^tm3(APOE*4)Mae N8, Taconic, Model 001549, 3-5 months old, n=48) were obtained from Taconic.
Compound 1 was formulated as a suspension. Vehicle or compound was given by oral administration in a volume of 10 ml/kg once. Vehicle: 0.1% Tween80 in 0.5% Methylcellulose in water. […]
(§1) Frozen mouse forebrains were weighed and homogenized in 9 volumes (w/v) of ice-cold TBS-Complete (20 mM Tris-HCl pH 7.4, 137 mM NaCl, 1× Complete [Protease Inhibitor Cocktail Tablets: 1 836 145, Roche Diagnostics GmbH, Penzberg, Germany]) by sonication (90% duty cycle, output control 5, 40-55 pulses, [Sonifier 450, Branson]). After homogenization several 50 μl aliquots were prepared for analysis and were stored at −80° C.
Endogenous Aβ40 in mice was determined with the Meso Scale Discovery (MSD) 96-well MULTI-ARRAY human/rodent (4G8) Aβ40 Ultrasensitive Assay (#K110FTE-3, Meso Scale Discovery, Gaithersburg, USA). The assay was performed according to the manufacturer's instructions except for the calibration curve and the sample preparations. TritonX-100 (TX-100) soluble Aβ40 was extracted from forebrain with 1% TX-100 using a 50 μl aliquot of each 1:10 forebrain homogenate, mixed with 50 μl 2% TX-100 in TBS complete (20 mM Tris-HCl pH 7.4, 137 mM NaCl, 1× Complete [Protease Inhibitor Cocktail Tablets: 1 836 145, Roche Diagnostics GmbH, Penzberg Germany]) to reach a final concentration of 1% TX-100 and a 1:20 forebrain dilution. The samples were incubated for 15 min on ice and vortexed every 5 min. The samples were ultra-centrifuged (100000×g, 4° C., 15 min) and 50 μl of the clear supernatants were transferred to fresh tubes. For the Aβ40 assay the supernatants were further diluted 1:5 in 3% Blocker A solution (from kit) to a final forebrain dilution of 1:100 and applied to the plate.
The calibration curve was prepared in a corresponding dilution of 1% Blocker A solution spiked with synthetic Aβ1-40 peptide (1.56-100 pg/ml) except for non-transgenic mouse brain samples: In this case, the calibration curve was prepared in a correspondingly diluted APP knockout mouse forebrain spiked with synthetic Aβ1-40 peptide (1.56-100 pg/ml). For all samples and standards 25 μl were applied per well. For each determination duplicate wells were done. The mean values from the duplicate wells were used for calculations.

[2] = system: Aβ40 in CSF; test: First-in-human single and multiple ascending oral dose study: Aβ40 in CSF; assay type: in vivo; details: for Dose-dependent lowering of Aβ40 concentrations in CSF, up to: healthy elderly subjects
Protocol: The purpose of this study was to determine the single and multiple maximum tolerated dose of Compound 1 and to assess the pharmacokinetic/pharmacodynamic (PK/PD) relationship using Aβ in CSF as primary PD biomarker.
Pharmacodynamic assessments using Aβ concentrations in CSF as primary biomarker of drug action were also been applied in healthy elderly subjects. Dose-dependent lowering of Aβ40 concentrations was determined up to approximately 80% and 90% after single and multiple dosing, respectively (Tables 9 and 10, FIG. 7).
(§2) In the completed first-in-human and 3-month dose-ranging safety and tolerability clinical studies described in Examples 3 and 4, Aβ concentrations in CSF were obtained by means of lumbar punctures before the first dose (baseline) and respectively after 2 weeks and 3 months of multiple dosing. ApoE4 genotype also was obtained in the subjects who consented. The percent change from baseline in Aβ40 and Aβ42 concentrations was calculated in subjects who took the study treatment and had no major protocol deviation with potential impact on the evaluation of the pharmacodynamic effect. Tables 13 to 16 below provide summary statistics of the percent change from baseline by treatment group and ApoE genotype (E4 heterozygotes versus E4 non-carriers). Only one subject with CSF data was E4 homozygote (from the 3-month dose-ranging safety and tolerability study).

[3] = system: Aβ40 in CSF; test: 3-month dose-ranging study: Aβ40 in CSF; assay type: in vivo; details: first-in-human and 3-month studies
Excerpt: (§3) This study is listed in ClinicalTrials.gov under the NCT02576639 Identifier code.
(§4) The primary purpose of this study was to expand on previous safety and tolerability data obtained over 2-week and 4-week duration in the first in human study and thereby allow initiation of future long-term efficacy trials in subjects at risk of AD and CAA. In addition, data relevant for Pharmacokinetic/Pharmacodynamic modeling was obtained in order to support dose selection decisions for future efficacy studies.
The extent of Aβ lowering was stable over time with PD steady-state being reached after approximately 2-3 weeks.
as §2, with “Only one subject with CSF data was E4 homozygote (from the 3-month dose-ranging safety and tolerability study).” left out

[4] = 3-month dose-ranging safety and tolerability study; assay type: in vivo, human; details: once-daily doses of 2, 10, 35 and 85 mg over three months; healthy elderly
Excerpt: as §3, §4

[5] = system: Aβ40; test: Chronic treatment of APP23 mice: formic acid soluble Aβ40 in forebrain; assay type: in vivo, mouse; details: high Compound 1 treatment group
Protocol: as §1
Fifty microliter of forebrain homogenate was mixed with 116.6 μl 100% formic acid, resulting in a final formic acid concentration of 70%. Samples were stored on ice and vortexed every 5 minutes. For neutralization, 50 μl of the mixture were pipetted into a new tube, and 950 μl of 1 M Tris base, containing 1× Complete Protease inhibitor, was added. Tubes were stored at room temperature overnight and then centrifuged for 15 minutes at 14000 rpm in an Eppendorf Microzentrifuge at 4° C. From the top layer, 100 μl are removed and mixed with 100 μl of 3% Blocker A solution (part of the MesoScale assay kit). This sample was either directly applied to the assay plate (dilution 1:1332) or further diluted in 1% Blocker A solution.
Amyloid-β42 increased more than Aβ40 (Aβ42/40 ratio increased by 55% in the vehicle group), in agreement with its higher aggregation propensity.

[6] = 13-week oral safety study in aged APP23 mice: body weight; assay type: in vivo, mouse; details: chronic treatment, 13 weeks; aged female APP23 mice
Protocol: Body weight range: 26 to 36 g (at start of dosing)
Means and standard deviations (SD), standard error of the mean (SEM) and coefficient of variation (CV) as indicated accordingly were calculated and an Analysis of Variance (ANOVA) performed. For the analysis of body weights a 2way ANOVA with Turkey's multiple comparison test was performed using GraphPad Prism 6. ANOVA with random effects statistical analyses were performed on MRI data using Systat Version 13 (Systat Software, Inc., San Jose, Calif., USA).

SMILES: C[C@@]1(c2nc(NC(=O)c3ncc(C(F)(F)F)cc3Cl)ccc2F)CO[C@@](C)(C(F)(F)F)C(N)=N1 [Compound 1, N-(6-((3R,6R)-5-amino-3,6-dimethyl-6-(trifluoromethyl)-3,6-dihydro-2H-1,4-oxazin-3-yl)-5-fluoropyridin-2-yl)-3-chloro-5-(trifluoromethyl)picolinamide]
- % reduction vs vehicle (brain Aβ40) ([1]; 3 μmol/kg acute, 4 h): 43%
- Average Aβ40 brain ± SD ([1]; 3 μmol/kg acute, 4 h): 0.114 ± 0.024 pmol/g
- Mini AUEC (brain Aβ40) ([1]; 3 μmol/kg acute): 32%
- % reduction vs vehicle (brain Aβ40) ([1]; 3 μmol/kg acute, 24 h): 20%
- Average Aβ40 brain ± SD ([1]; 3 μmol/kg acute, 24 h): 0.160 ± 0.033 pmol/g
- % reduction vs vehicle (brain Aβ40) ([1]; 10 μmol/kg acute, 4 h): 63%
- Average Aβ40 brain ± SD ([1]; 10 μmol/kg acute, 4 h): 0.074 ± 0.014 pmol/g
- Mini AUEC (brain Aβ40) ([1]; 10 μmol/kg acute): 47%
- % reduction vs vehicle (brain Aβ40) ([1]; 10 μmol/kg acute, 24 h): 31%
- Average Aβ40 brain ± SD ([1]; 10 μmol/kg acute, 24 h): 0.139 ± 0.041 pmol/g
- % reduction vs vehicle (brain Aβ40) ([1]; 30 μmol/kg acute, 4 h): 77%
- Average Aβ40 brain ± SD ([1]; 30 μmol/kg acute, 4 h): 0.046 ± 0.006 pmol/g
- Mini AUEC (brain Aβ40) ([1]; 30 μmol/kg acute): 72%
- % reduction vs vehicle (brain Aβ40) ([1]; 30 μmol/kg acute, 24 h): 66%
- Average Aβ40 brain ± SD ([1]; 30 μmol/kg acute, 24 h): 0.068 ± 0.021 pmol/g
- Aβ40 reduction, range over doses ([1]; 4 h): 43-77%
- Aβ40 reduction, range over doses ([1]; 24 h): 20-66%
- Emax ([1]; Mus musculus, 30 μmol/kg acute, read-out: maximal effect on Aβ reduction in the brain): > 70%
- Dose-dependent lowering of Aβ40 concentrations in CSF, up to ([2]; multiple dosing): ~90%
- Aβ40 in CSF percent change from baseline, Median ([2]; single dose 10 mg, 24 h): −14.3%
- Dose-dependent lowering of Aβ40 concentrations in CSF, up to ([2]; single dosing): approximately 80%
- CSF Aβ40 and Aβ42 response to treatment, ApoE4 carriers vs non-carriers [3]: no difference
- safety and tolerability [4]: safe and tolerated
- reduction of deposited Aβ40 and 42 vs vehicle [5]: around 80%
- body weight [6]: did not lead to any change in body weight
